Measurements as given in ChEMBL document CHEMBL5614403, “Efficient synthesis of novel 1,10 phenanthroline-substituted imidazolium salts: Exploring their anticancer applications” (Eur J Med Chem, 2024).

How the values were obtained:
MCF7 [1] = experiment: Cytotoxicity against human MCF7 cells assessed as cell viability incubated for 72 hrs by MTT assay; format: functional, cell-based; conditions: MCF7, 72 h
MDA-MB-231 [2] = experiment: Upregulation of Bax protein level in human MDA-MB-231 cells by Western blot analysis; format: functional, cell-based; conditions: time 24-72 hrs, TDE = time-dependent effect
MCF7 [3] = experiment: Upregulation of Bax protein level in human MCF7 cells measured after 24 to 72 hrs by Western blot analysis; format: functional, cell-based; conditions: time 24-72 hrs
MCF7 [4] = experiment: Downregulation of Bcl-2 protein level in human MCF7 cells by Western blot analysis; format: functional, cell-based; conditions: time 24-72 hrs, TDE = time-dependent effect
MCF7 [5] = experiment: Downregulation of Bcl-2 protein level in human MCF7 cells measured after 24 to 72 hrs by Western blot analysis; format: functional, cell-based; conditions: time 24-72 hrs
MCF7 [6] = experiment: Upregulation of Bax protein level in human MCF7 cells by Western blot analysis; format: functional, cell-based; conditions: time 24-72 hrs, TDE = time-dependent effect
MDA-MB-231 [7] = experiment: Downregulation of Bcl-2 protein level in human MDA-MB-231 cells by Western blot analysis; format: functional, cell-based; conditions: time 24-72 hrs, TDE = time-dependent effect
[8] = Stability of compound in D2O/DMSO-d6 (20:80) measured after 2 days by 1H NMR spectroscopic analysis; format: physicochemical; conditions: 48 h; time 2 day
MCF7 [9] = experiment: Induction of apoptosis in human MCF7 cells incubated for 72 hrs by Annexin V-FITC and PI staining based flow cytometry analysis; format: functional
[10] = Downregulation of Bcl-2 mRNA expression level in human MDA-MB-231 cells assessed as fold change by qRT-PCR analysis; format: functional
MDA-MB-231 [11] = experiment: Induction of apoptosis in human MDA-MB-231 cells incubated for 72 hrs by Annexin V-FITC and PI staining based flow cytometry analysis; format: functional
MDA-MB-231 [12] = experiment: Upregulation of Bax protein level in human MDA-MB-231 cells measured after 24 to 72 hrs by Western blot analysis; format: functional, cell-based; conditions: time 24-72 hrs
DNA = experiment: Binding affinity to DNA (unknown origin) assessed as intrinsic binding constant at 0 to 15 uM by ultraviolet-visible spectroscopic analysis; format: nucleic-acid assay; conditions: dose 0-15 µM
MDA-MB-231 [13] = experiment: Cytotoxicity against human MDA-MB-231 cells assessed as cell viability incubated for 72 hrs by MTT assay; format: functional, cell-based; conditions: MDA-MB-231, 72 h
[14] = Selectivity index, ratio of IC50 for human MCF-10A cells to ratio of IC50 for human MCF-7 cells; format: toxicity; conditions: MCF-10A cells versus MCF-7 cells, read-out: Selectivity Index
[15] = Downregulation of Bcl-2 mRNA expression level in human MCF7 cells assessed as fold change by qRT-PCR analysis; format: functional
[16] = Stability of compound in 100 % DMSO-d6 by 1H NMR spectroscopic analysis; format: physicochemical; conditions: 168 h, TDE = time-dependent effect, time < 7 day
[17] = Stability of compound in D2O/DMSO-d6 (20:80) measured upto 1 day by 1H NMR spectroscopic analysis; format: physicochemical; conditions: 24 h
MDA-MB-231 [18] = experiment: Downregulation of Bcl-2 protein level in human MDA-MB-231 cells measured after 24 to 72 hrs by Western blot analysis; format: functional, cell-based; conditions: time 24-72 hrs
[19] = Upregulation of Bax mRNA expression level in human MCF7 cells assessed as fold change by qRT-PCR analysis; format: functional
MCF-10A = experiment: Cytotoxicity against human MCF-10A cells assessed as cell viability incubated for 72 hrs by MTT assay; format: functional, cell-based
[20] = Selectivity index, ratio of IC50 for human MCF-10A cells to ratio of IC50 for human MDA-MB-231 cells; format: toxicity; conditions: MCF-10A cells versus MDA-MB-231 cells, read-out: Selectivity Index
[21] = Upregulation of Bax mRNA expression level in human MDA-MB-231 cells assessed as fold change by qRT-PCR analysis; format: functional
HepG2 = experiment: Antitumor activity against human HepG2 cells incubated for 72 hrs by MTT assay; format: functional, cell-based; conditions: HepG2, 72 h
MDA-MB-231 [22] = experiment: Cytotoxicity against human MDA-MB-231 cells assessed as cell viability at 100 uM incubated for 72 hrs by MTT assay relative to control; format: functional; conditions: read-out: Activity
MCF7 [23] = experiment: Cytotoxicity against human MCF7 cells assessed as cell viability at 100 uM incubated for 72 hrs by MTT assay relative to control; format: functional; conditions: read-out: Activity

Structure (SMILES) | IC50 (MCF7 [1]) [µM] | IC50 (MDA-MB-231 [13]) [µM] | IC50 (MCF-10A) [µM] | viability at 100 µM (MDA-MB-231 [22]) [%] | viability at 100 µM (MCF7 [23]) [%] | also measured
CCCCCCCCCCCC[n+]1ccn(-c2cc3cccnc3c3ncccc23)c1.[Br-] | 15.4 | 12.8 | 64.2 |  |  | Activity (MDA-MB-231 [2]): Tde; Activity (MCF7 [3]): Dose-Dependent Effect; Activity (MCF7 [4]): Tde; Activity (MCF7 [5]): Dose-Dependent Effect; Activity (MCF7 [6]): Tde; Activity (MDA-MB-231 [7]): Tde; Stability [8]: Unstable; Activity (MCF7 [9]): 89%; fold change (FC) [10]: 4.2; Activity (MDA-MB-231 [11]): 95%; Activity (MDA-MB-231 [12]): Dose-Dependent Effect; Kb (DNA): 12600 M⁻¹; selectivity ratio [14]: 4.1; fold change (FC) [15]: 3.9; Stability [16]: Tde; Stability [17]: Stable; Activity (MDA-MB-231 [18]): Dose-Dependent Effect; fold change (FC) [19]: 3.4; selectivity ratio [20]: 5; fold change (FC) [21]: 3.6
c1ccc(-c2nc3c4cccnc4c4ncccc4c3[nH]2)cc1 |  |  |  |  |  | IC50 (HepG2): 0.68 µM
Cc1cc(C)c(C[n+]2ccn(-c3cc4cccnc4c4ncccc34)c2)c(C)c1 | 64.2 | 32.7 | 35.9 |  |  | 
CCCC[n+]1ccn(-c2cc3cccnc3c3ncccc23)c1 | 43.4 | 52.6 | 48.4 | 25.2 | 4.8 | 
COc1cccc2c1C(=O)c1c(O)c3c(c(O)c1C2=O)C[C@@](O)(C(=O)CO)C[C@@H]3O[C@H]1C[C@H](N)[C@H](O)[C@H](C)O1 [DOXORUBICIN] |  | 4.8 |  |  |  | 
c1ccc(C[n+]2ccn(-c3cc4cccnc4c4ncccc34)c2)cc1 | 52 | 29.4 | 46.7 |  |  | 
Cc1c(C)c(C)c(C[n+]2ccn(-c3cc4cccnc4c4ncccc34)c2)c(C)c1C | 49.8 | 37.2 | 32.4 |  |  | 
CCCCCCCC[n+]1ccn(-c2cc3cccnc3c3ncccc23)c1 | 49.7 | 17.8 | 35.1 | 10.1 | 21.1 | 
c1cnc2c(c1)cc(-n1ccnc1)c1cccnc12 | 128 | 60.7 | 237 | 39.7 | 61.3 | 
